The test system of one series is rat adipocyte. The series is described as follows: Inhibition of free fatty acid (FFA) release from epinephrine-stimulated rat adipocytes. Format: cell-based. To be noted: concentration inhibiting release of the fatty acid by 50 %, relative values with IC50 of VOSO4 regarded as 1.00 mM, 10^-5 M epinephrine, 3 hours at 37°C, glycine complex in aqueous solution, others in physiological saline. The procedure:
A pharmacological test was conducted as described below in accordance with the method reported in Biol.Pharm.Bull., 18, 719-725 (1995).
A male Wistar rat weighing 200 g was exsanguinated under an anesthesia with ether, and a fat cell mass was isolated from a fat tissue around an epididymis according to the method of Road Bell (J. Biol. Chem. , 239, 375(1964)). The fat cell mass was cut into pieces using scissors, and digested for 1 hour at 37°C in a KRB buffer solution (5 mM Glucose, 120 mM NaCl, 1.27 mM CaCl2, 1.2 mM MgSO4, 4.75 mM KCl, 1.2 mM KH2PO4 and 24 […]; pH=7.4) supplemented with 20 mg of bovine serum albumin (BSA) and 2 mg of collagenase per ml. The fat cells were sieved through a nylon mesh (250 µm) whereby being made free from any undigested tissue, washed three times with the buffer similar to that described above except for containing no collagenase, and adjusted at 2.5 x 10^6 cells/ml.
Then the reaction mixture was combined with 10^-5 M epinephrine and the resultant solution was incubated for 3 hours at 37°C. The reaction was quenched by cooling with ice, and the mixture was centrifuged for 10 minutes at 3000 rpm. The extracellular solution was examined for its free fatty acid (FFA) level using an NEFA kit whereby calculating an IC50 value.

In series [1] the test system is KK-A^y mice. Kind of series: Body weight change in KK-A^y mice under daily intraperitoneal treatment (index of side effects). Format: in vivo. The following applies: intraperitoneally once a day, 4.5 or 2.5 mg Zn/kg depending on blood glucose, 13 to 15 days (Figures 9 to 11). On the procedure:
(§1) In the control group, 0.5 ml of the acacia solution was given.

The test system of series [2] is KK-A^y mice. Kind of series: Glucose tolerance test in KK-A^y mice after 3 days of treatment. Format: in vivo. To be noted: 4 mg/kg once a day for 3 days, then fasted for 14 hours, compared with mice not receiving the complex (Figure 3). The procedure: Subsequently, KK-A^y mice as type II diabetes model animals and humans were subjected to the glucose tolerance tests to obtain blood glucose curves, which are shown in Figure 3 and Figure 4.
In Figure 3, (a) denotes a blood glucose curve obtained in a glucose tolerance test in mice each of which received 4 mg/kg of Zn(PA)2(H2O)2 as an inventive zinc (II) complex once a day for 3 days and then fasted for 14 hours, and (b) denotes one in a control group in which the mice were not treated with the complex. In Figure 4, (a) denotes a blood glucose curve obtained in a glucose tolerance test in diabetes patients, while (b) denotes one in normal healthy volunteers.

The test system of series [3] is KK-A^y mice. Kind of series: Glucose tolerance test in KK-A^y mice after 15 days of treatment. Format: in vivo. To be noted: KK-A^y mice fasted for 13 hours, glucose orally at 1 g/kg; compared with control mice (Figure 12). The procedure: 8-Week old KK-A^y mice were treated intraperitoneally once a day with a 5 % acacia solution in a control group (n=6) or with Zn(PA)2 (n=6), Zn(maltol)2 (n=7) or Zn(Cys-OMe)2 (n=6) dissolved in a 5 % acacia solution in the complex treatment groups.
as §1
(glucose tolerance test: A mouse was fasted for 13 hours and then administered orally with glucose at 1 g/kg, and then the blood glucose levels were determined at certain time intervals.)

Setting [4] is: Glucose +, 6-methyl-picolinic acid and pyridine-2-acetic acid complexes in DMSO.

As usually defined, the IC50 is the concentration at which inhibition is half-maximal.

In the case of `O=S(=O)([O-])[O-].[O]=[V+2]` [VOSO4/5.4 or 2.3H2O, Oxovanadium sulfate, reference compound], the IC50 in the series with rat adipocyte (setting [4]) and in the series on rat adipocyte (Glucose -) was 1 mM in each case.
In turn, `Cc1cccnc1C(=O)O` [Zn(3MPA)2] showed a half-inhibitory concentration (IC50) in the series with rat adipocyte (Glucose -) of 0.42 mM.
The same measure, in the same setting: the figure for `O=C(O)c1cccc(Br)n1` [Zn(6BPA)2] is 0.45 mM.
Consider `Cc1cccc(C(=O)[O][Zn][O]C(=O)c2cccc(C)n2)n1` [Zn(6MPA)2(H2O), bis(6-methyl-picolinate)zinc(II)complex], for which the IC50 in the series with rat adipocyte (setting [4]) came to 0.39 mM.
On to `COC(=O)C(N)C[S-].COC(=O)C(N)C[S-].[Zn+2]` [Zn(Cys-OMe)2, bis(L-cysteine methyl ester) zinc (II) complex], for which the “body weight change (weight loss as an index of side effects)” value in the series on KK-A^y mice [1] is reported as “no increase or decrease in the body weight was observed”.
The compound `O=C(O)C1CSCN1` [Zn(D-4Tia)2] came in with an IC50 with rat adipocyte (Glucose -) of 1.28 mM.
`NC(=O)CC[C@H](N)C(=O)O` [Zn(Gln)2]: in the series on rat adipocyte (setting [4]), the IC50 was found to be 0.84 mM.
Take `O=c1cc(CO)occ1O` [Zn(Koj)2]: it took 0.91 mM to reach half-maximal inhibition with rat adipocyte (Glucose -) (IC50).
Same read-out and setting: the figure for `O=C(O)C1CSCN1` [Zn(L-4Tia)2] is 1.2 mM.
As for `O=C([O-])c1cccnc1.O=C([O-])c1cccnc1.[Zn+2]` [Zn(Nic)2/4H2O], the IC50 in the series on rat adipocyte (setting [4]) came to 0.82 mM.
On to `O.O.O=C([O-])c1ccccn1.O=C([O-])c1ccccn1.[Zn+2]` [trans-[Zn(PA)2H2O)2], trans-bis(picolinate) zinc (II) complex], for which the “blood glucose curve in glucose tolerance test” value with KK-A^y mice [2] was “a reduced peak level of the blood glucose followed by a rapid decrease, as compared with the mice not receiving the complex and then recovered its almost normal blood glucose level after 180 minutes”. Besides, the “body weight change (weight loss as an index of side effects)” value with KK-A^y mice [1] was “not observed in most of the animals”. In addition, the “glucose tolerance test after the administration of each complex for 15 days” value in the series on KK-A^y mice [3] was “an amelioration of the diabetes conditions when compared with the diabetes mice (control mice)”.
In the case of “bis(2-mercaptopyridine-N-oxide) zinc (II) complex [Zn(MPNO)2/0.3H2O]”, the IC50 in the series on rat adipocyte (setting [4]) is 0.011 mM; in the series with rat adipocyte (Glucose -) it was 0.013 mM.
As for “bis(3-hydroxy-2-methyl-4-pyronate) zinc (II) complex [Zn(maltol)2/2.6H2O]”, in the series on rat adipocyte (setting [4]), the IC50 was determined as 0.57 mM. Besides, the “body weight change (weight loss as an index of side effects)” value with KK-A^y mice [1] is “immediately after the treatment with the complex, the body weight was recovered in response to the reduction in the blood glucose and the reduction in the dose”. Besides, the “glucose tolerance test after the administration of each complex for 15 days” value in the series on KK-A^y mice [3] is recorded as “an amelioration of the diabetes conditions when compared with the diabetes mice (control mice)”.
As for “bis(pyrrolidine-N-dithiocarbamate) zinc (II) complex [Zn(PCD)2]”, the IC50 with rat adipocyte (Glucose -) stood at 0.049 mM.
On the same count and under the same terms, under “cis-bis(threonine) zinc (II) complex [cis-[Zn(Thr)2(H2O)2]]” stands 1.3 mM.
For “trans-bis(glycine) zinc (II) complex [Zn(Gly)2/1.0H2O]”, the IC50 with rat adipocyte (setting [4]) amounted to 0.63 mM; with rat adipocyte (Glucose -), 0.84 mM.

Values taken from EP1674096A2, “Hypoglycemics comprising organic zinc (II) complexes” (Japan Science and Technology Agency, priority 1999, dated 2001).
